The source of these data is US20160102058A1, “FLUORO-PERHEXILINE COMPOUNDS AND THEIR THERAPEUTIC USE” (THE UNIVERSITY COURT OF THE UNIVERSITY OF ABERDEEN, priority 2013, published 2016).

One data set has as its target T1, cardiac CPT-1 (Rattus norvegicus, UniProt Q63704).
T1 construct: 50 μL of mitochondrial suspension, suitably diluted in Assay Buffer; from tissue; host or cells: rat heart mitochondria (Sprague-Dawley)
T1 sequence (Q63704 1-772): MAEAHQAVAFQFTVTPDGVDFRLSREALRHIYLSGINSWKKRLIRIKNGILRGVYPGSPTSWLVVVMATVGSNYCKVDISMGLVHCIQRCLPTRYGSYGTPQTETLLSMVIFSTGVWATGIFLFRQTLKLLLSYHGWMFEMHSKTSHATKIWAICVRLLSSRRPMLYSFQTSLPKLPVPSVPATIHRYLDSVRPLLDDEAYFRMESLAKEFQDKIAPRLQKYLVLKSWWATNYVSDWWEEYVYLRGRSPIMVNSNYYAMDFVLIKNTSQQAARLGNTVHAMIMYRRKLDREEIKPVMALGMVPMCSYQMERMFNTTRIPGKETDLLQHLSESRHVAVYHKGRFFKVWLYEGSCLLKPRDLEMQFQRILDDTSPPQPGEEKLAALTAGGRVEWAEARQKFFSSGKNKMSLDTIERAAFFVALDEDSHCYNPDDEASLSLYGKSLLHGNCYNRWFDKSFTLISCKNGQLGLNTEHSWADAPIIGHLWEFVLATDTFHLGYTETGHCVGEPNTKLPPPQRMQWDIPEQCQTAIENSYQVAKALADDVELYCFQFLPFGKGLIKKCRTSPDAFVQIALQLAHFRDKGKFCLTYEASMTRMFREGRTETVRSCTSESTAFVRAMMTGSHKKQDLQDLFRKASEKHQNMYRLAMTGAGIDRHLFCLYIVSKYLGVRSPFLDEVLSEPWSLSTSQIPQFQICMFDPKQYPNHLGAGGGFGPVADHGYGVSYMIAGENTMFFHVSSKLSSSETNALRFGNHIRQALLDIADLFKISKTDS
Briefly: Carnitine palmitoyl transferase (M-CPT-1) inhibition assay, rat heart mitochondria. Type of data set: biochemical. The method, then: Male Sprague-Dawley rats (8-10 weeks of age) were purchased from Charles River and maintained for 10 days under standard housing and feeding conditions. All isolation procedures were performed on ice using pre-cooled solutions and instruments. Rats (n=4 per mitochondrial isolation batch) were sacrificed by CO2 asphyxiation, and hearts were removed and rinsed in 3 changes of ice-cold phosphate buffered saline (PBS) to remove blood. Hearts were finely minced with scissors, and homogenised in 5 volumes/wt of a buffer containing 300 mM sucrose, 5 mM MOPS, 1 mM EGTA, 5 mM K2HPO4, 0.1% BSA, pH 7.4, using a teflon Potter homogenizer. The homogenate was centrifuged at 1500×g for 10 min, the supernatant was collected and centrifuged at 9800×g for 5 min, the mitochondrial pellet was washed and centrifuged twice in the same buffer, and then re-suspended in Assay Buffer (150 mM sucrose, 60 mM KCl, 25 mM Tris/HCl, 1 mM EDTA, 0.1 mM 4,4′-dithiopyridine, 1.3 mg/mL lipid-depleted BSA, pH 6.8). Mitochondrial suspensions were kept on ice and used fresh for each set of experiments. A spectrophotometric assay for M-CPT-1 was used, which measured the decrease in palmitoyl CoA concentration as it was utilised by the enzyme to produce palmitoylcarnitine, according to the following reaction: palmitoyl CoA+L-carnitine→palmitoylcarnitine+CoA The disappearance of palmitoyl CoA was monitored as a loss of UV absorbance at 324 nm. Enzyme reactions (1.0 mL final volume, in a spectrophotometer cuvette) contained: • 890 μL of Assay Buffer (see above). • 50 μL of mitochondrial suspension, suitably diluted in Assay Buffer. • 20 μL of 50-fold concentrated inhibitor in suitable vehicle, or vehicle alone. • 20 μL of 2 mM palmitoyl CoA (final concentration 40 μM). • 20 μL of 20 mM L-carnitine (final concentration 400 μM). […] Tubes were incubated at 37° C., and UV absorbance was recorded for 5 min. […] The protein concentration of the mitochondrial suspension was determined using the Bradford assay reagent. […]

The next data set concerns the target T2, CYP2D6 (Homo sapiens, UniProt P10635).
T2 construct: purchased Cypex Ltd; host or cells: bacterial membranes (Bactosomes)
Briefly: Cytochrome P450 2D6 reaction phenotyping (Bactosomes). It counts as in vitro ADME. The conditions noted are these: for stability towards CYP2D6 compared with perhexiline (in words): versus perhexiline; for half-life at 5 μM: human, pH 7.4, read-out: T½. Here is the method:
The stability of fluoroperhexiline derivatives towards CYP2D6-mediated metabolism was measured by determination of the rate of compound disappearance when incubated in the presence CYP2D6 recombinant isoform expression systems (Bactosomes™). The percentage of parent compound remaining at each time point (following correction for any loss in the incubations with the control bactosomes) is calculated. cDNA expressed human CYP450 enzyme preparations co-expressed with human NADPH cytochrome P450 reductase (Bactosomes™) are supplied by Cypex Ltd. Bactosomes™ are stored at −80° C. prior to use. […] Incubations are also performed using control bactosomes (no P450 enzymes present) to reveal any non-enzymatic degradation. The final incubation volume is 25 μL. A compound known to be metabolised specifically by CYP2D6 isoform is used as a control compound. Each compound is incubated singly for 0, 5, 15, 30 and 45 min with each isoform. The reactions are stopped by the addition of 50 μL methanol containing internal standard at the appropriate time points. The incubation plates are centrifuged at 2500 rpm for 20 min at 4° C. to precipitate the protein. Following protein precipitation, the sample supernatants are combined in cassettes of up to four compounds and analysed using Cyprotex generic LC-MS/MS conditions. The natural logarithm of the peak area ratio (which has been corrected for any loss in the incubations with the control bactosomes) is plotted against time and the gradient of the line determined. Elimination Rate Constant (k)=(−Gradient).

Where [1] appears, read: recombinant CYP2D6 Bactosomes, 5 μM test compound.

T2 sequence (P10635 whole entry): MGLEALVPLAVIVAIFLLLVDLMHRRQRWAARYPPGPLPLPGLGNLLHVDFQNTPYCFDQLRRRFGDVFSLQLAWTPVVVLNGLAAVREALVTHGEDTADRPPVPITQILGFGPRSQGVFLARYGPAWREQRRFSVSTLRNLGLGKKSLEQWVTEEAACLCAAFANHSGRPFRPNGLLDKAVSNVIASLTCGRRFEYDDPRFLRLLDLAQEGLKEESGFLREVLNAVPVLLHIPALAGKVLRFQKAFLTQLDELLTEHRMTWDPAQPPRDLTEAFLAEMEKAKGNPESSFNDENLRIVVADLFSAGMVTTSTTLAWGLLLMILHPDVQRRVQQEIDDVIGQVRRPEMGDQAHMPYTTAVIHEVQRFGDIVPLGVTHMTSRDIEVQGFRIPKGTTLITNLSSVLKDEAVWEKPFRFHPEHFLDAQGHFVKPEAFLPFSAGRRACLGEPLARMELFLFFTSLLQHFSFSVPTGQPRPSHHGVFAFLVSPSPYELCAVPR

In general, IC50 refers to the concentration that inhibits the measured activity by half. Low values mean higher potency, high ones lower potency. On cardiac CPT-1, `FC1(F)CCC(C(CC2CCCCN2)C2CCCCC2)CC1` (mixture of isomers) [FPER-001, 2-(2-Cyclohexyl-2-(4,4-difluorocyclohexyl)ethyl)piperidine] showed an IC50 of 35 µM. Also, the “T½” value on CYP2D6 (setting [1]) was determined as 104 min. The “stability towards CYP2D6 compared with perhexiline (in words)” value on CYP2D6 was “substantial increase in stability towards CYP2D6”.
For `FC1CCC(C(CC2CCCCN2)C2CCCCC2)CC1` (mixture of isomers) [FPER-003, 2-(2-Cyclohexyl-2-(4-fluorocyclohexyl)ethyl)piperidine], the midpoint of inhibition against cardiac CPT-1, the IC50, lay at 85 µM. Further, the half-life at 5 μM on CYP2D6 (setting [1]) was found to be 16 min. The “stability towards CYP2D6 compared with perhexiline (in words)” value on CYP2D6 is reported as “no increase in stability”.
The compound `C1CCC(C(CC2CCCCN2)C2CCCCC2)CC1` (centres unmarked) [Perhexiline, 2-(2,2-dicyclohexylethyl)piperidine] came in with an IC50 against cardiac CPT-1 of 18 µM. Also, the half-life at 5 μM on CYP2D6 (setting [1]) was 14 min.
